Experiments:
[1] = tested on: RSV-A Long; assay: RT-qPCR assay, RSV-A Long in primary HBECs; assay type: cell-based; details: human respiratory syncytial virus, primary HBEC
[2] = tested on: RSV-A2; assay: CPE assay, RSV-A2 in Vero cells; assay type: cell-based; details: human respiratory syncytial virus
Method: (§1) HEp-2, Vero, and BHK were seeded at 8,000 cells per well (cpw) in growth medium (Dulbecco’s Modified Eagle Medium (DMEM) with 1% GlutaMAX, 1% Penicillin/Streptomycin (P/S), 1% Non-Essential Amino Acids (NEAA), 10% Fetal Bovine Serum (FBS)) or (Minimum Essential Medium (MEM) with 10% FBS, 1% NEAA, 1% P/S) or (Eagle’s Minimum Essential Medium with L-Glutamine, with 10% FBS, 1% P/S) respectively. A549 seeded at 3,000 cpw in F-12K Kaighn’s Modification nutrient mixture with 10% FBS, 1% NEAA, 1% P/S. Cells seeded at time of infection in 96-well plates, final well volume 100μL. Compounds suspended in DMSO, serially diluted and added to wells at 0.5% final DMSO concentration. Viral stocks stabilized with 25% sucrose, previously titered using plaque assay, were added at desired MOI. Sucrose added to cells-only control wells to match percent added with virus. Unless otherwise noted, RSV-A strains were tested at 0.1 MOI and incubated for 5 days in a 37°C, 5% CO2 humidified incubator, and RSV-B at 0.5 MOI for 6 days. Cytopathic effect (CPE) determined using ATPlite (Perkin Elmer) measured with Envision luminometer. For RT-qPCR, RNA was extracted from whole well using Ambion RNAqueous-96 Automated Kit, and RT-qPCR run using Applied Biosystems TaqMan RNA-to-CT 1-Step Kit. […] All EC50s were calculated using the XLFit four-parameter logistic model 200 in Microsoft Excel.

[3] = tested on: RSV-A M37; assay: RT-qPCR assay, RSV-A M37 in primary HBECs; assay type: cell-based; details: human respiratory syncytial virus, primary HBEC
[4] = tested on: RSV-A Long; assay: RT-qPCR viral load assay, RSV-A Long in HEp-2 cells; assay type: cell-based; details: human respiratory syncytial virus, HEp-2, RT-qPCR
[5] = tested on: RSV-A Long; assay: RT-qPCR assay, RSV-A Long in primary neonatal lamb bronchial epithelial cells; assay type: cell-based; details: human respiratory syncytial virus, Epithelial cell
[6] = tested on: RSV A2; assay: RSV-infected African Green monkey model, viral load; assay type: in vivo, African Green monkeys (Chlorocebus)
Method: African Green monkeys (AGMs) are permissive for human RSV infection and support a relatively higher level of viral replication compared to cotton rats and BALB/c mice. It has been previously validated as a non-human primate model for assessing in vivo efficacy of potential RSV vaccines and antiviral drugs. To evaluate the activity of EDP-938 in the AGM model, 4 animals each were treated with 100 mg/kg BID with EDP-938, RSV-604, or vehicle control via oral gavage starting 24 hours prior to RSV challenge and continuing for an additional 5 days. Samples were collected through bronchoalveolar lavage (BAL) and nasopharyngeal (NP) swab at various time points to determine viral load. […] Viral load in the NP swab samples was also determined.
A study of EDP-938 and RSV-604 in the African Green monkey (AGM) animal model was performed by BIOQUAL, Inc (Rockville, Maryland). Methods were similar to those run in a study by Ispas et al.. Six (6) male and 6 female AGMs (Chlorocebus) of 4–5 kg were purchased from PrimGen (Hines, Illinois). Each animal was challenged with 2 x 10^5 PFU of RSV A2 viral inoculum (Virapur, San Diego, CA). Four animals (2 per sex) in each group were treated with EDP-938, RSV-604, or vehicle control (0.5% w/v methylcellulose). The animals were dosed via oral gavage twice daily (every 12 hours), starting 24 hours prior to RSV challenge, and then continuing for an additional 5 days (6 total days of dose administration). Bronchoalveolar lavage (BAL) samples and nasopharyngeal (NP) swabs were collected for viral load determination.

[7] = tested on: RSV-B VR-955 EDP-938 resistant populations; assay: Susceptibility of EDP-938 resistant RSV-B VR-955 populations; assay type: cell-based, respiratory syncytial virus
[8] = Cytotoxicity (ATPlite) in CHO cells; assay type: cell-based; details: Chinese hamster, read-out: half-maximal cytotoxic concentration (CC50)
Method: HEp-2, A549, and CHO cells were seeded at 3,000 cpw in their respective growth medium. CHO growth medium used was RPMI medium 1640 with 10% FBS, 1% P/S, 1% GlutaMAX. HEK-293 cells seeded at 10,000 cpw in DMEM growth medium. Undifferentiated HBECs were seeded in collagen-coated 96-well plates at 7,500 cpw in appropriate growth medium. Compound added and incubated for 3 days (4 days for HBECs) as described above. Plates read with ATPlite and CC50 calculated as EC50s as described above. SI = CC50/EC50 within a cell line.

[9] = tested on: recombinant RSV A2-line19F, N protein mutants; assay: microbe, parasite or virus in culture; details: human respiratory syncytial virus
[10] = tested on: RSV-B VR-955; assay: RT-qPCR assay, RSV-B VR-955 in HEp-2 cells; assay type: cell-based; details: human respiratory syncytial virus
Method: as §1

[11] = tested on: RSV-A2; assay: CPE assay, RSV-A2 in HEp-2 cells; assay type: cell-based; details: human respiratory syncytial virus
Method: as §1

[12] = 144 h, RSV-A Long MOI 0.1, 6 days

With O=C1Nc2ccccc2C(c2ccccc2)=N[C@@H]1Nc1nnc(-c2ncc(C(F)(F)F)cc2N2CCOCC2)o1 [EDP-938] as the molecule, how does the EC50 [1, 12] read?
Its EC50 is 21 ± 17 nM.

What about the EC90 ([1]; RSV-A Long) of the same molecule?
Its EC90 is 29 ± 23 nM.

What about the EC50 [2] of the same molecule?
Its EC50 is 33 ± 7 nM.

And the EC90 [2]?
Its EC90 is 44 ± 18 nM.

And the EC50 ([3]; 144 h, RSV-A M37 MOI 0.1, 6 days)?
Its EC50 is 23 ± 14 nM.

What about the EC90 ([3]; RSV-A M37) of the same molecule?
Its EC90 is 36 ± 17 nM.

And the EC50 ([4]; 120 h, RSV-A Long MOI 0.1, 5 days, read-out: EC50)?
Its EC50 is 89 ± 16 nM.

What about the EC90 ([4]; RSV-A Long) of the same molecule?
The EC90 was 91 ± 62 nM.

And the EC50 [5, 12]?
Its EC50 is over 800 nM.

And the EC90 ([5]; RSV-A Long)?
Its EC90 is over 800 nM.

What about the “reduction in peak viral load” value ([6]; 100 mg/kg BID oral gavage) of the same molecule?
Its value is ~ 4 log10.

And the “effect on RSV viral load vs vehicle control” value ([6]; 100 mg/kg BID oral gavage, BAL)?
The value was “completely suppressed viral replication”.

What about the “viral load reduction in BAL” value ([6]; 100 mg/kg BID oral gavage, Day 5, to below limit of detection (100 copies/mL)) of the same molecule?
The value was 4 log10.

What about the “viral load reduction in NP swab” value ([6]; 100 mg/kg BID oral gavage, Day 7, to below limit of detection (100 copies/mL)) of the same molecule?
Its value is 4 log10.

And the “viral rebound after cessation of treatment” value ([6]; BAL fluid, above the limit of detection)?
The value was “no viral rebound was observed”.

What about the “EC50 Fold Change vs. WT” value ([7]; RSV-B VR-955 Population 1, N: M109K, L139Q (dual WT/mutant population)) of the same molecule?
Its value is 42 fold.

What about the “EC50 Fold Change vs. WT” value ([7]; RSV-B VR-955 Population 2, N: M109T) of the same molecule?
Its value is 6.6 fold.

What about the “EC50 Fold Change vs. WT” value ([7]; RSV-B VR-955 Wild-Type) of the same molecule?
The value was 1 fold.

And the CC50 at 3 days [8]?
Its CC50 at 3 days is about 27000 nM.

What about the EC50 ([9]; HEp-2, recombinant RSV N K107N) of the same molecule?
Its EC50 is 52 ± 6 nM.

What about the EC50 ([9]; HEp-2, recombinant RSV N K136R) of the same molecule?
The EC50 was 125 ± 20 nM.

What about the EC50 ([9]; HEp-2, recombinant RSV N L139I) of the same molecule?
Its EC50 is 326 ± 83 nM.

And the EC50 ([9]; HEp-2, recombinant RSV N M109I)?
The EC50 was 70 ± 26 nM.

And the EC50 ([9]; HEp-2, recombinant RSV N M109K)?
Its EC50 is 1220 nM.

What about the EC50 ([9]; HEp-2, recombinant RSV N M109K mutant) of the same molecule?
Its EC50 is about 1200 nM.

And the EC50 ([9]; HEp-2, recombinant RSV N M109T)?
Its EC50 is 244 ± 61 nM.

What about the EC50 ([9]; HEp-2, recombinant RSV N N105D) of the same molecule?
The EC50 was 60 ± 44 nM.

What about the EC50 ([9]; HEp-2, recombinant RSV N S134T) of the same molecule?
The EC50 was 99 ± 26 nM.

What about the EC50 ([9]; HEp-2, recombinant RSV N V90A) of the same molecule?
Its EC50 is 46 ± 29 nM.

And the EC50 ([9]; HEp-2, recombinant RSV Wild-type (WT), HEp2)?
The EC50 was 45 ± 21 nM.

And the EC50 ([10]; 144 h, RSV-B VR-955 MOI 0.5, 6 days)?
The EC50 was 110 ± 22 nM.

What about the EC90 ([10]; RSV-B VR-955) of the same molecule?
Its EC90 is 140 ± 24 nM.

What about the EC50 [11] of the same molecule?
The EC50 was 28 ± 4 nM.

What about the EC90 [11] of the same molecule?
Its EC90 is 40 ± 3 nM.

Source: article PMC7993833, “EDP-938, a novel nucleoprotein inhibitor of respiratory syncytial virus, demonstrates potent antiviral activities in vitro and in a non-human primate model” (PLoS Pathogens, 2021)
